Measured values as given in ChEMBL document CHEMBL1153839, “Pulmonary versus systemic delivery of antibiotics: comparison of vancomycin dispositions in the isolated rat lung” (Antimicrob Agents Chemother, 2007).

Experiments:
Lung [1] = experiment: Mean transit time in Wistar rat lung at 500 ug, administered through systemic route under respiratory mode of 30 respirations per minute, 4 ml/kg tidal volume; format: ADME, tissue-based; details: in vivo, other
Lung [2] = experiment: Drug level in Wistar rat lung at 500 ug, administered through systemic route; format: ADME, tissue-based; details: in vivo
[3] = Ratio of drug level in lung to efferent fluid in Wistar rat at 500 ug, administered through systemic route under respiratory mode of 30 respirations per minute, 4 ml/kg tidal volume; format: ADME; details: in vivo, other
[4] = Ratio of drug level in bronchoalveolar fluid to efferent fluid in Wistar rat at 500 ug, administered through pulmonary route under respiratory mode of 30 respirations per minute, 4 ml/kg tidal volume; format: ADME; details: in vivo, inhaled_or_intranasal
[5] = Ratio of drug level in bronchoalveolar fluid to lung in Wistar rat at 500 ug, administered through pulmonary route under respiratory mode of 30 respirations per minute, 4 ml/kg tidal volume; format: ADME; details: in vivo, inhaled_or_intranasal
[6] = Ratio of drug level in lung to efferent fluid in Wistar rat at 500 ug, administered through pulmonary route under respiratory mode of 60 respirations per minute, 2 ml/kg tidal volume; format: ADME; details: in vivo, inhaled_or_intranasal
[7] = Ratio of drug level in bronchoalveolar fluid to efferent fluid in Wistar rat at 500 ug, administered through pulmonary route under respiratory mode of 60 respirations per minute, 2 ml/kg tidal volume; format: ADME; details: in vivo, inhaled_or_intranasal
Lung [8] = experiment: Mean transit time in Wistar rat lung at 500 ug, administered through systemic route under respiratory mode of 60 respirations per minute, 2 ml/kg tidal volume; format: ADME, tissue-based; details: in vivo, other
[9] = Ratio of drug level in lung to efferent fluid in Wistar rat at 500 ug, administered through systemic route under respiratory mode of 60 respirations per minute, 2 ml/kg tidal volume; format: ADME; details: in vivo, other
[10] = AUC (0 to infinity) in Wistar rat lung at 500 ug, administered through systemic route under respiratory mode of 30 respirations per minute, 4 ml/kg tidal volume; format: ADME; set-up: dose 500 ug, time infinity
[11] = Ratio of drug level in bronchoalveolar fluid to lung in Wistar rat at 500 ug, administered through pulmonary route under respiratory mode of 60 respirations per minute, 2 ml/kg tidal volume; format: ADME; details: in vivo, other
[12] = AUC (0 to infinity) in Wistar rat lung at 500 ug, administered through systemic route under respiratory mode of 60 respirations per minute, 2 ml/kg tidal volume; format: ADME; set-up: dose 500 ug, time infinity
[13] = Ratio of drug level in lung to efferent fluid in Wistar rat at 500 ug, administered through pulmonary route under respiratory mode of 30 respirations per minute, 4 ml/kg tidal volume; format: ADME; details: in vivo, inhaled_or_intranasal
[14] = Drug level in Wistar rat bronchoalveolar fluid at 500 ug, administered through systemic route; format: ADME, tissue-based, Lung; details: in vivo

## CN[C@H](CC(C)C)C(=O)N[C@H]1C(=O)N[C@@H](CC(N)=O)C(=O)N[C@H]2C(=O)N[C@H]3C(=O)N[C@H](C(=O)N[C@H](C(=O)O)c4cc(O)cc(O)c4-c4cc3ccc4O)[C@H](O)c3ccc(c(Cl)c3)Oc3cc2cc(c3O[C@@H]2O[C@H](CO)[C@@H](O)[C@H](O)[C@H]2O[C@H]2C[C@](C)(N)[C@H](O)[C@H](C)O2)Oc2ccc(cc2Cl)[C@H]1O [VANCOMYCIN]
Lung [1]
  MTT: 0.78 min
Lung [2]
  Drug uptake: 0.11 µg/g
[3]
  Ratio: 0.5
[4]
  Ratio: 17.89
[5]
  Ratio: 7.1
[6]
  Ratio: > 9.44
[7]
  Ratio: > 17.89
Lung [8]
  MTT: 0.47 min
[9]
  Ratio: 0.49
[10]
  AUC(0-inf): 2140 ng·h/mL
[11]
  Ratio: 4.69
[12]
  AUC(0-inf): 1830 ng·h/mL
[13]
  Ratio: 9.44
[14]
  Drug uptake: 0.1 µg/g
